Results published in patent US4808729A, “Leukotriene LTD4 and LTB4 antagonists” (G. D. Searle & Co., priority 1987, dated 1989).

What was measured:
[1] = target: T1, guinea pig lung receptors (LTD4 receptor) (Cavia porcellus, UniProt Q2NNR5); test: Leukotriene (LTD4) Receptor Binding Assay; conditions: LTD4 Antagonism; guinea pig lung membrane
T1 construct: guinea pig lung receptors, isolated from guinea pig lung membrane; from tissue; host or cells: guinea pig lung membrane
T1 sequence (Q2NNR5 1-340): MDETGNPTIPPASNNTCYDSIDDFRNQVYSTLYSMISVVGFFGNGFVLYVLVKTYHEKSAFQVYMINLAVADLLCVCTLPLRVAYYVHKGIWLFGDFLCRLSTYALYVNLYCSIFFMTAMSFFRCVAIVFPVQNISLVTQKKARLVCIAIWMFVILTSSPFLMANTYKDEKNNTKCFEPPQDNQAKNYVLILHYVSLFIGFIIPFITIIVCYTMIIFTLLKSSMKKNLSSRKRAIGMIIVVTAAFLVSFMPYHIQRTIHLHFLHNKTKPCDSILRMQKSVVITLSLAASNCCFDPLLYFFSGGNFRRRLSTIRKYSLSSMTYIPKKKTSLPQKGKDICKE
Protocol: Leukotriene Receptor Binding Assay (12c01)
The in vitro LTD4 receptor binding assay is carried out as follows:
Specific binding of titrated LTD4 to a fixed number of guinea pig lung receptors, isolated from guinea pig lung membrane, is measured in the presence and absence of test compound. The initial screening dose (1×10^-5 M is considered active if the specific binding of LTD4 is reduced by 45% or more. Active compounds are tested in a dose-response manner to determine IC50 values.

[2] = target: T2, guinea pig ileum (LTD4-induced contraction) (Cavia porcellus, UniProt Q2NNR5); test: LTD4 Antagonism in Guinea Pig Ileum; assay type: cell-based; conditions: pA2, Schild analysis
T2 construct: Fresh segments of guinea pig ileum; from tissue; host or cells: guinea pig ileum segments
T2 sequence (Q2NNR5 1-340): T1 sequence (Q2NNR5 1-340)
Protocol: LTD4 Antagonism in Guinea Pig Ileum
Fresh segments of guinea pig ileum were suspended in 2 ml. tissue baths containing oxygenated modified Tyrodes solution. After an equilibration period, an agonist dose-response curve was generated by exposing each tissue to 4 different LTD4 doses and measuring the ensuing contractile heights. The ileum segments were washed and rested between exposures to agonist. Following this, the tissues were incubated with a single concentration of test compound and the agonist dose-response procedure was repeated. The dose ratio is a measure of the antagonist's ability to shift the agonist dose-response curve to the right. It is derived as the concentration of agonist necessary to reach a given response level in the presence (A') versus the absence (A) of antagonist. For example, if the test concentration of compound had no effect on the agonist-induced response (A'=A) the dose-ratio would approximate 1. […] One dose-ratio value is determined for each strip of ileum used to test antagonist. […] Schild analysis examines the linearity of the function described by the dose-ratios written as log [(A'/A)-1] versus antagonist concentration. If the linearity is […] and the slope approximates 1, inhibition is considered to be competitive. The pA2 is the negative log of the antagonist concentration required to produce a dose-ratio of 2. This value is considered to be a measure of the affinity of the competitive antagonist.

[3] = tested on: LTD4 action on respiratory smooth muscle; test: In Vivo Bronchoconstriction Assay (LTD4-induced); set-up: species or system guinea pig; conditions: LTD4 Antagonism, guinea pigs, 2000 units LTD4 IV
Protocol: The compounds are tested in vivo as follows. Adult male fasted Hartly guinea pigs weighing 300-350 g are pretreated with pyrilamine and indomethacin to block the bronchoconstricture effects of endogenous histamine and the synthesis of thromboxane A2 respectively. Compounds of the invention are administered IV or IG at approximate times prior to the IV administration of 2000 units of LTD4. Intratracheal pressure is monitored prior to and subsequent to LTD4 in animals anesthetized with pentobarbital and attached to a rodent respirator. Compounds which antagonize the direct component of LTD4 action on respiratory smooth muscle inhibit intratracheal insufflation pressure increases (P< or =0.05) caused by LTD4. FPL 55712 is used as a control.

LTB4 receptor = target: T3, LTB4 receptor (Homo sapiens, UniProt Q15722); test: LTB4 Receptor Binding Assay (human neutrophils); conditions: LTB4 Antagonism, 0.6 nano M (3H) LTB4, 0° C., 45 minutes
T3 construct: Neutrophils were purified from venous blood of normal human donors; endogenous in cells; host or cells: human blood neutrophils
Protocol: Preparation of Human Neutrophils
Neutrophils were purified from venous blood of normal human donors using standard techniques of dextran sedimentation, centrifugation on Histopaque sterile solution (Sigma) and hypotonic lysis of erythrocytes (Boyum, A., Isolation of Leukocytes from Human Blood: Further Observations. Scand. J. Lab. Clin. Invest. 21 (Suppl. 97): 31, 1968). The purity of isolated neutrophils was ≥95%.
LTB4 Receptor Binding Assay
Neutrophils (4-6×10^6) in 1 ml Hanks' balanced salt solution containing 10 mM HEPES buffer (HBSS), pH 7.4 and […] nordihydroguaiaretic acid were incubated with 0.6 nano M (^3 H) LTB4 in the presence or absence of test compounds. The incubation was carried out at 0° C. for 45 minutes and terminated by adding 5 ml of ice-cold HBSS followed by rapid filtration of incubation mixture under vacuum through GF/C glass fiber filters. The filters were further washed with 10 ml HBSS and radioactivity was determined. Specific binding was defined as the difference between total binding and nonspecific binding which was not displaced by 10^-7 M unlabeled LTB4. All data refer to specific binding.

T3 sequence (Q15722 whole entry): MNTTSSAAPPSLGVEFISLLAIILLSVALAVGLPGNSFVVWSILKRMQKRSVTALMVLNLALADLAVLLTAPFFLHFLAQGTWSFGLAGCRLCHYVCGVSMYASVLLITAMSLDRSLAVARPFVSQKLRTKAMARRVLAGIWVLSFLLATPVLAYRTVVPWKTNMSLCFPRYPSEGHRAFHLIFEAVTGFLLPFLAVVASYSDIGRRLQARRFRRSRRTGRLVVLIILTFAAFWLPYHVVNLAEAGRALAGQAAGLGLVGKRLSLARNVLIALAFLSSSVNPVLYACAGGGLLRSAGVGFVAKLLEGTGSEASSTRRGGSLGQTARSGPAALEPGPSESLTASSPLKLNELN

How did the IC50 [1] turn out when `CCCc1c(OCCCSCC2COC(CCC(=O)O)(CCC(=O)O)S2)ccc(C(C)=O)c1O` (stereo not drawn) [Example 3, 4-[[[3-(4-Acetyl-3-hydroxy-2-propylphenoxy)propyl]thio]methyl]-1,3-oxathiolane-2,2-dipropanoic acid] was run?
The IC50 was 3560 nM.

What about the Kb [2] of the same molecule?
Its Kb is 21.4 nM.

And the “In Vivo Bronchoconstriction Assay (% Inhibition at 5 mpk. IV)” value [3]?
The value was 96.9%.

Which IC50 [1] does the source give for `CCCc1c(OCCCSCC2CSC(CCC(=O)O)(CCC(=O)O)S2)ccc(C(C)=O)c1O` (stereo not drawn) [Example 35, 4-[[[3-(4-Acetyl-3-hydroxy-2-propylphenoxy)propyl]thio]methyl]-1,3-dithiolane-2,2-dipropanoic acid] here?
The IC50 was 591 nM.

What about the Kb [2] of the same molecule?
The Kb was 8.91 nM.

What about the “In Vivo Bronchoconstriction Assay (% Inhibition at 5 mpk. IV)” value [3] of the same molecule?
Its value is 93%.

Which IC50 [1] does the source give for `CCCc1c(OCCCSCC2COC(C)(CCC(=O)O)S2)ccc(C(C)=O)c1O` (stereo not drawn) [Example 38, 4-[[[3-(4-Acetyl-3-hydroxy-2-propylphenoxy)propyl]thio]methyl]-2-methyl-1,3-oxathiolane-2-propanoic acid] here?
Its IC50 is 9370 nM.

What about the Kb [2] of the same molecule?
The Kb was 14.5 nM.

And the “In Vivo Bronchoconstriction Assay (% Inhibition at 5 mpk. IV)” value [3]?
The value was 87.2%.

Which IC50 [1] does the source give for `CCCc1c(OCCCSCC2CSC(C)(CCC(=O)O)S2)ccc(C(C)=O)c1O` (stereo not drawn) [Example 50, 4-[[[3-(4-Acetyl-3-hydroxy-2-propylphenoxy)propyl]thio]methyl]-2-methyl-1,3-dithiolane-2-propanoic acid] here?
Its IC50 is 9470 nM.

What about the Kb [2] of the same molecule?
Its Kb is 14.5 nM.

And the “In Vivo Bronchoconstriction Assay (% Inhibition at 5 mpk. IV)” value [3]?
Its value is 91.2%.

What does the source list for `CCCc1c(OCCCSCC2CSC(C)(CCCC(=O)O)S2)ccc(C(C)=O)c1O` (stereo not drawn) [Example 61, 4-[[[3-(4-Acetyl-3-hydroxy-2-propylphenoxy)propyl]thio]methyl]-2-methyl-1,3-dithiolane-2-butanoic acid]?
IC50 [1]: 5020 nM; Kb [2]: 9.55 nM; In Vivo Bronchoconstriction Assay (% Inhibition at 5 mpk. IV) [3]: 95.6%

How did the IC50 [1] turn out when `CCCc1c(OCCCSCC2COC(CCC(=O)O)(c3ccccc3)S2)ccc(C(C)=O)c1O` (stereo not drawn) [Example 70, 4-[[[3-(4-Acetyl-3-hydroxy-2-propylphenoxyl]propyl]thio]methyl]-2-phenyl-1,3-oxathiolane-2-propanoic acid] was run?
The IC50 was 6240 nM.

And the Kb [2]?
Its Kb is 26.9 nM.

What about the “In Vivo Bronchoconstriction Assay (% Inhibition at 5 mpk. IV)” value [3] of the same molecule?
Its value is 59.2%.

With `CCCc1c(OCCCSCC2CSC(C)(CCCC(=O)O)S2)ccc(C(C)=O)c1OC` (stereo not drawn) [Example 81, 4-[[[3-(4-Acetyl-3-methoxy-2-propylphenoxy)propyl]thio]methyl]-2-methyl-1,3-dithiolane-2-butanoic acid] as the molecule, how does the IC50 (LTB4 receptor) read?
Its IC50 is 60 nM.

With `CCCc1c(OCCCSCC2COC(C)(CCCC(=O)O)S2)ccc(C(C)=O)c1O` (stereo not drawn) [Example 84] as the molecule, how does the IC50 [1] read?
Its IC50 is 7100 nM.

What about the “In Vivo Bronchoconstriction Assay (% Inhibition at 5 mpk. IV)” value [3] of the same molecule?
The value was 85.1%.
